Structures are written as SMILES.

The target of the test is T1, GPR120 (Homo sapiens, UniProt Q5NUL3).
T1 construct: expressed in transfected cells; host or cells: CHO mitoPhotinaGPR120 cells
T1 sequence (Q5NUL3 1-361): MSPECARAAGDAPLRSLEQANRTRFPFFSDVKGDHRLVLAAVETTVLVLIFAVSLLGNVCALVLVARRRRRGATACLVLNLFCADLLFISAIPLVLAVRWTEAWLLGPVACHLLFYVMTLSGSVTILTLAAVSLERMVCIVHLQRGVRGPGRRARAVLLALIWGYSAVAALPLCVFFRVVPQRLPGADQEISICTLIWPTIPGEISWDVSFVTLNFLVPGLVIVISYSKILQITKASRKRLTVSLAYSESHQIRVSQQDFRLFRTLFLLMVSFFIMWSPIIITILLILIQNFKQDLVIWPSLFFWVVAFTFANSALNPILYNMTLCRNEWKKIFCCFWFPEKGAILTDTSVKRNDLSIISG
Description: GPR120 agonism in CHO mitoPhotinaGPR120 cell based assay with fluorescent (Fluo-8 calcium, FLIPRTetra) readout, Agonist Mode, dose response. Conditions: CHO mitoPhotinaGPR120 cells, Fluo-8 No Wash Ca2+ dye, dose response in quadruplicate, 0.0033% fatty acid free BSA. The method, then:
Compounds of the invention were tested for GPR120 agonism in a CHO mitoPhotinaGPR120 cell based assay with fluorescent readout in Agonist Mode in dose response in quadruplicate with intra-plate modality.
Twenty (20) h after seeding, growth medium was manually removed and cells were starved in the presence of 25 μL/w of Standard Tyrode's Buffer. After 3 h, cells were loaded with 20 μL/w of 0.5× Fluo-8 No Wash (AAT Bioquest, Inc.) Ca2+ sensitive dye prepared in Standard Tyrode's Buffer. Cells were incubated for 1 h at room temperature in the dark. Ten (10) μL/w 3× of controls and compounds were diluted in Standard Tyrode's Buffer+0.01% fatty acid free BSA (final concentration=0.0033%) and injected at the FLIPRTetra®, recording the kinetic calcium traces for 3 minutes. Standard Tyrode's buffer composition: 5 mM KCl, 130 mM NaCl, 2 mM CaCl2), 5 mM NaHCO3, 1 mM MgCl2, 20 mM HEPES, pH7.4.
Regarding `Cc1nn(-c2ccccc2)c(COc2c(F)cc(CC(C)CO)cc2F)c1C#N` (racemic) [Example 43, 5-[[2,6-difluoro-4-(3-hydroxy-2-methyl-propyl)phenoxy]methyl]-3-methyl-1-phenyl-pyrazole-4-carbonitrile], the concentration giving a half-maximal response (EC50) was found to be 0.45 µM.

As for `Cc1nn(-c2ccccc2)c(COc2ccc(CCC(C)O)cc2)c1C#N` (racemic) [Example 47, 5-[[4-(3-hydroxybutyl)phenoxy]methyl]-3-methyl-1-phenyl-pyrazole-4-carbonitrile], the concentration for a half-maximal effect (EC50) came to 1.65 µM.

With `Cc1nn(-c2ccccc2)c(COc2c(F)cc(CC(C)CO)cc2F)c1C#N` (single isomer, unassigned; (+)) [Example 43A, (+)-5-[[2,6-difluoro-4-(3-hydroxy-2-methyl-propyl)phenoxy]methyl]-3-methyl-1-phenyl-pyrazole-4-carbonitrile], the 50% effective concentration (EC50) amounted to 0.34 µM.

`Cc1nn(-c2ccccc2)c(COc2c(F)cc(CC(C)CO)cc2F)c1C#N` (single isomer, unassigned; (+)) [Example 43B, (+)-5-[[2,6-difluoro-4-(3-hydroxy-2-methyl-propyl)phenoxy]methyl]-3-methyl-1-phenyl-pyrazole-4-carbonitrile]: the EC50 turned out to be 1.69 µM.

For `Cc1nn(-c2ccccc2)c(COc2ccc(CCC(C)O)cc2)c1C#N` (single isomer, unassigned; (+)) [Example 47A, (+)-5-[[4-(3-hydroxybutyl)phenoxy]methyl]-3-methyl-1-phenyl-pyrazole-4-carbonitrile], the half-maximal effective concentration (EC50) amounted to 0.5 µM.

`Cc1nn(-c2ccccc2)c(COc2ccc(CCC(C)O)cc2)c1C#N` (single isomer, unassigned; (-)) [Example 47B, (−)-5-[[4-(3-hydroxybutyl)phenoxy]methyl]-3-methyl-1-phenyl-pyrazole-4-carbonitrile]: the EC50 stood at 2.36 µM.

Turning to `Cc1nn(-c2ccccc2)c(COc2ccc(C#N)cc2)c1C#N` [Example 1, 5-[(4-cyanophenoxy)methyl]-3-methyl-1-phenyl-pyrazole-4-carbonitrile], the half-maximal effective concentration (EC50) worked out at 1.29 µM.

Take `Cc1nn(-c2ccccc2)c(COc2ccc(CO)cc2Cl)c1C#N` [Example 2, 5-[[2-chloro-4-(hydroxymethyl)phenoxy]methyl]-3-methyl-1-phenyl-pyrazole-4-carbonitrile]: the EC50 was 1.24 µM.

Turning to `COc1ccc(OCc2c(C#N)c(C)nn2-c2ccccc2)cc1` [Example 3, 5-[(4-methoxyphenoxy)methyl]-3-methyl-1-phenyl-pyrazole-4-carbonitrile], the EC50 was found to be 1.31 µM.

Consider `Cc1ccc(OCc2c(C#N)c(C)nn2-c2ccccc2)cc1` [Example 4, 3-methyl-5-[(4-methylphenoxy)methyl]-1-phenyl-pyrazole-4-carbonitrile], for which the 50% effective concentration (EC50) worked out at 1.67 µM.

With `Cc1nn(-c2ccccc2)c(COc2ccc(CO)cc2)c1C#N` [Example 5, 5-[[4-(hydroxymethyl)phenoxy]methyl]-3-methyl-1-phenyl-pyrazole-4-carbonitrile], the EC50 stood at 2.31 µM.

Take `Cc1nn(-c2ccccc2)c(COc2ccc(CCO)cc2)c1C#N` [Example 6, 5-[[4-(2-hydroxyethyl)phenoxy]methyl]-3-methyl-1-phenyl-pyrazole-4-carbonitrile]: the concentration giving a half-maximal response (EC50) turned out to be 1.1 µM.

Take `Cc1nn(-c2ccccc2)c(COc2ccccc2)c1C#N` [Example 8, 3-methyl-5-(phenoxymethyl)-1-phenyl-pyrazole-4-carbonitrile]: the 50% effective concentration (EC50) stood at 1.52 µM.

With `Cc1nn(-c2ccccc2)c(COc2ccc(C#N)cc2F)c1C#N` [Example 10, 5-[(4-cyano-2-fluoro-phenoxy)methyl]-3-methyl-1-phenyl-pyrazole-4-carbonitrile], the EC50 is 3.39 µM.

On to `Cc1nn(-c2ccccc2)c(COc2ccc(CO)c(F)c2F)c1C#N` [Example 14, 5-[[2,3-difluoro-4-(hydroxymethyl)phenoxy]methyl]-3-methyl-1-phenyl-pyrazole-4-carbonitrile], for which the EC50 came to 3.09 µM.

The EC50 is the concentration giving half of the maximal effect.
